In brackets after ≈: the same amount, converted by molar mass.
What was measured:
[1] = tested on: mouse colonic cancer cells (Colon 26); test: growth-inhibitory effect on mouse colonic cancer cells, dye exclusion method; type: cell-based
Protocol: (§1) The growth-inhibitory effects of the compound of the present invention on mouse colonic cancer cells (Colon 26) and human colonic cancer cells (SWlll6) were examined. A 96-well plate was inoculated with mouse colonic cancer cells at a ratio of 1.5 x 10³ cells per well, while another 96-well plate was inoculated with human colonic cancer cells at a ratio of 3.0 x 10³ per well. These cells were incubated in an incubator at 37°C under 5 % CO₂ for 24 hours. Then the compound of the present invention was added thereto at various concentrations. Cells in each well were counted by the dye exclusion method 65 hours and 96 hours after the addition to thereby evaluate the growth-inhibitory effect of the test compound on the mouse colonic cancer cells and that on the human colonic cancer cells.

[2] = tested on: mouse lung cancer (lewis lung carcinoma); test: anti-cancer action against grafted mouse lung cancer, tumor volume; type: in vivo; details: mouse pulmonary cancer
From the text: The anti-cancer action of the compound of the present invention against mouse lung cancer (lewis lung carcinoma) and mouse breast cancer (Ehrlich B) was examined. 1 x 10⁶ mouse lung cancer cells or mouse breast cancer cells were grafted into a subcutaneous portion of the groin of an eight week-old male BDF₁ or ICR mouse, and the compound of the present invention was intraperitoneally administered to the mouse in various concentrations every day from two days after the graft once a day for 9 days. On the second day after completion of the administration, the minor axis and the major axis of the tumor were measured, and the volume of the tumor was determined by using the following equation: (minor axis)² x […]/2 [formula] . Then, the percentage inhibition of proliferation of each tumor with respect to the compound of the present invention was determined from the ratio of the volume of the tumor on the groups of administration of the compound of the present invention relative to that on the control group.

[3] = tested on: human melanoma cells (A375); test: growth-inhibitory effect on human melanoma cells, dye exclusion method; type: cell-based
Protocol: as §1, with “melanoma” for “colonic cancer”, “(B16)” for “(Colon 26)”, “(A375)” for “(SWlll6)”, “1.0” for “3.0”, “CO₂.” for “CO₂ for 24 hours.”, “hours” for “hours and 96 hours”

[4] = tested on: bovine adrenal capillary endothelial cells; test: growth-inhibitory effect on endothelial cells, Coulter counter; type: cell-based; details: Bos taurus, Endothelial cell, 72 h, three days after the addition
Protocol: The growth-inhibitory effect of the compound of the present invention on endothelial cells was examined. A 96-well plate was inoculated with bovine adrenal capillary endothelial cells at a ratio of 1 x 10⁴ cells per well. One day after the inoculation, the compound of the present invention was added thereto at various concentrations. Cells in each well were counted with a Coulter counter three days after the addition to thereby evaluate the growth-inhibitory effect of the test compound on the capillary endothelial cells. […] Thus the IC₅₀ of the compound of the present invention on the endothelial cells was 0.0003 µg/ml, showing a strong growth-inhibitory effect.

[5] = tested on: two-spotted spider mite acarids (a Kelthane-resistant species); test: insecticidal action, mortality rate of spider mites; type: in vivo; details: Tetranychus urticae, 48 h, Imagos of two-spotted spider mite, after 2 days
Protocol: (§2) The insecticidal action of the compound of the present invention was examined by the following method. • (1) An imago of two-spotted spider mite acarids (a Kelthane-resistant species) was used as a test vermin, and the mortality rate thereof was assayed according to an ordinary method (described on page 327 of "Noyaku Seibutsu Kenteiho" edited by Toyoji Hosotsuji). Specifically, a solution of the compound of the present invention in acetone (0.1 %) was added to 0.5 ml of an aqueous sucrose solution (1 %) to have a predetermined concentration. Ten two-spotted spider mite acarids were released in a vessel (200-ml beaker), and the vessel was covered with a paraffin film. The agent solution prepared above was put on the paraffin film, and another praffin film was put thereon. The beaker was allowed to stand in a thermostatic chamber (20 ± 1°C) for a predetermined period of time, and the life and death of the test vermin was investigated. • (2) A larva of mosquito culices (a sensitive species) was used as a test vermin, and the mortality rate thereof was assayed according to an ordinary method (described on page 109 of "Noyaku Jikkenho I, Sacchuzaihen" published by Soft Science, Inc.). Specifically, 10 ml of well water was placed in a vessel (15-ml Schale), and 5 larvae of mosquito culices (the third stage) were released in the vessel. A solution of the compound of the present invention in acetone (0.1 %) was added thereto so as to have a predetermined concentration. The vessel was allowed to stand in a thermostatic chamber (26 ± 1°C) for a predetermined period of time, and the life and death of the test vermin was investigated.

[6] = tested on: mosquito culices (a sensitive species); test: insecticidal action, mortality rate of mosquito larvae; type: in vivo
Protocol: as §2

acute toxicity = details: mouse, in vivo, ip; mice

Which inhibition at 0.0061 µg/mL ([1]; Mus musculus, Colon 26, 0.0061 µg/ml, read-out: Growth-inhibitory ratio) does the source give for `CCC1C=CC=CCC(C)C(O)C(C)(O)C(=O)C(C)C(O)C(C)C(=O)C(C)C(O)C(C)C=CC(=O)OC2C(C)C(CC1)OC1(OC(CC(C)O)C(C)CC1=O)C2CC` (stereo not shown) [NK86-0279] here?
Its inhibition at 0.0061 µg/mL is 84.6%.

What about the inhibition at 0.024 µg/mL ([1]; Mus musculus, Colon 26, 0.024 µg/ml, read-out: Growth-inhibitory ratio) of the same molecule?
The inhibition at 0.024 µg/mL was 87.5%.

And the inhibition at 0.098 µg/mL ([1]; Mus musculus, Colon 26, 0.098 µg/ml, read-out: Growth-inhibitory ratio)?
Its inhibition at 0.098 µg/mL is 86.1%.

What about the inhibition at 0.39 µg/mL ([1]; Mus musculus, Colon 26, 0.39 µg/ml, read-out: Growth-inhibitory ratio) of the same molecule?
Its inhibition at 0.39 µg/mL is 87.6%.

What about the inhibition at 1.56 µg/mL ([1]; Mus musculus, Colon 26, 1.56 µg/ml, read-out: Growth-inhibitory ratio) of the same molecule?
The inhibition at 1.56 µg/mL was 94.2%.

And the inhibition at 6.25 µg/mL ([1]; Mus musculus, Colon 26, 6.25 µg/ml, read-out: Growth-inhibitory ratio)?
Its inhibition at 6.25 µg/mL is 105%.

And the inhibition at 25 µg/mL ([1]; Mus musculus, Colon 26, 25 µg/ml, read-out: Growth-inhibitory ratio)?
The inhibition at 25 µg/mL was 108%.

And the inhibition at 100 µg/mL ([1]; Mus musculus, Colon 26, 100 µg/ml, read-out: Growth-inhibitory ratio)?
The inhibition at 100 µg/mL was 104%.

What about the IC50 ([1]; mouse colonic cancer cells (Colon 26), read-out: IC₅₀) of the same molecule?
Its IC50 is less than 6.1 ng/mL.

What about the “Growth-inhibitory ratio (tumor volume)” value ([2]; 0.063 mg/kg intraperitoneally once a day for 9 days) of the same molecule?
The value was 46.3%.

What about the “Growth-inhibitory ratio (tumor volume)” value ([2]; 0.125 mg/kg intraperitoneally once a day for 9 days) of the same molecule?
Its value is 57.1%.

What about the “Growth-inhibitory ratio (tumor volume)” value ([2]; 0.250 mg/kg intraperitoneally once a day for 9 days) of the same molecule?
The value was 8.9%.

What about the “Growth-inhibitory ratio (tumor volume)” value ([2]; 0.500 mg/kg intraperitoneally once a day for 9 days) of the same molecule?
The value was 59.6%.

And the IC50 ([3]; A-375, human melanoma cells (A375), 65 hours after the addition, read-out: IC₅₀)?
The IC50 was 1870 ng/mL (≈ 2280 nM).

What about the inhibition at 0.0061 µg/mL ([3]; Homo sapiens, A-375, 65 h, A375, 0.0061 µg/ml, read-out: Growth-inhibitory ratio) of the same molecule?
Its inhibition at 0.0061 µg/mL is 19.7%.

And the inhibition at 0.024 µg/mL ([3]; Homo sapiens, A-375, 65 h, A375, 0.024 µg/ml, read-out: Growth-inhibitory ratio)?
The inhibition at 0.024 µg/mL was 39.7%.

And the inhibition at 0.098 µg/mL ([3]; Homo sapiens, A-375, 65 h, A375, 0.098 µg/ml, read-out: Growth-inhibitory ratio)?
The inhibition at 0.098 µg/mL was 49.4%.

And the inhibition at 0.39 µg/mL ([3]; Homo sapiens, A-375, 65 h, A375, 0.39 µg/ml, read-out: Growth-inhibitory ratio)?
The inhibition at 0.39 µg/mL was 43.7%.

And the inhibition at 1.56 µg/mL ([3]; Homo sapiens, A-375, 65 h, A375, 1.56 µg/ml, read-out: Growth-inhibitory ratio)?
The inhibition at 1.56 µg/mL was 44.4%.

What about the inhibition at 6.25 µg/mL ([3]; Homo sapiens, A-375, 65 h, A375, 6.25 µg/ml, read-out: Growth-inhibitory ratio) of the same molecule?
The inhibition at 6.25 µg/mL was 83.6%.

What about the inhibition at 25 µg/mL ([3]; Homo sapiens, A-375, 65 h, A375, 25 µg/ml, read-out: Growth-inhibitory ratio) of the same molecule?
The inhibition at 25 µg/mL was 105%.

What about the inhibition at 100 µg/mL ([3]; Homo sapiens, A-375, 65 h, A375, 100 µg/ml, read-out: Growth-inhibitory ratio) of the same molecule?
The inhibition at 100 µg/mL was 105%.

What about the inhibition at 0.000128 µg/mL ([4]; 0.000128 µg/ml, read-out: Groth-inhibitory ratio) of the same molecule?
Its inhibition at 0.000128 µg/mL is 35.4%.

And the inhibition at 0.00064 µg/mL ([4]; 0.00064 µg/ml, read-out: Groth-inhibitory ratio)?
The inhibition at 0.00064 µg/mL was 63.2%.

What about the inhibition at 0.0032 µg/mL ([4]; 0.0032 µg/ml, read-out: Groth-inhibitory ratio) of the same molecule?
Its inhibition at 0.0032 µg/mL is 78.4%.

And the inhibition at 0.016 µg/mL ([4]; 0.016 µg/ml, read-out: Groth-inhibitory ratio)?
The inhibition at 0.016 µg/mL was 89.7%.

What about the IC50 ([4]; endothelial cells, read-out: IC₅₀) of the same molecule?
Its IC50 is 0.3 ng/mL (≈ 0.366 nM).

And the mortality at 1 ppm ([5]; 1 ppm)?
Its mortality at 1 ppm is 100%.

What about the mortality at 10 ppm ([5]; 10 ppm) of the same molecule?
The mortality at 10 ppm was 100%.

And the mortality at 100 ppm ([5]; 100 ppm)?
The mortality at 100 ppm was 100%.

What about the mortality at 1 ppm ([6]; 48 h, after 2 days) of the same molecule?
Its mortality at 1 ppm is 0%.

And the mortality at 10 ppm ([6]; 48 h, after 2 days)?
The mortality at 10 ppm was 100%.

What about the mortality at 1 ppm ([6]; 144 h, 6 days) of the same molecule?
Its mortality at 1 ppm is 0%.

What about the mortality at 10 ppm ([6]; 144 h, 6 days) of the same molecule?
Its mortality at 10 ppm is 100%.

What about the mortality at 1 ppm ([6]; 216 h, 9 days) of the same molecule?
The mortality at 1 ppm was 0%.

What about the mortality at 10 ppm ([6]; 216 h, 9 days) of the same molecule?
The mortality at 10 ppm was 100%.

And the LD50 (acute toxicity)?
The LD50 was 1.67 mg/kg.
